Assay results from PubChem BioAssay AID256 (DTP/NCI, 2004).
“And” between values parts separate entries of the source, which are not always exact repeats. Equal values may be shown once. Inconclusive results and toxic doses are left out. How the source made its calls: active means survival T/C of 150% or more; inactive means T/C below 125% in these data.

System: CD2F1 mice, L1210 leukemia ip, survival T/C
Assay: NCI In Vivo Anticancer Drug Screen. Data for tumor model L1210 Leukemia (intraperitoneal) in CD2F1 (CDF1) mice
Details: higher = longer survival
How it was run: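 Activity against a transplanted murine tumor was judged by comparing the compound group with a vehicle group. The outcome in the treated animals was divided by that in the controls.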

[1] = endpoint: mean survival time, dose: 25.0 mg/kg/injection, schedule: Q04DX002 (ip), vehicle: saline with Tween-80
[2] = endpoint: mean survival time, dose: 50.0 mg/kg/injection, schedule: Q04DX002 (ip), vehicle: saline with Tween-80
[3] = endpoint: mean survival time, dose: 100.0 mg/kg/injection, schedule: Q04DX002 (ip), vehicle: saline with Tween-80
[4] = endpoint: mean survival time, dose: 200.0 mg/kg/injection, schedule: Q04DX002 (ip), vehicle: saline with Tween-80

Measured: T/C

NNc1ccccc1F
inactive: [1] 97 % of control | [2] 90 % of control | [3] 93 % of control | endpoint: mean survival time, dose: 100.0 mg/kg/injection, schedule: Q04DX003 (ip), vehicle: saline sonified 87 % of control

CC(C)C(=O)OCCOC(=O)C(C)C
inactive: endpoint: mean survival time, dose: 100.0 mg/kg/injection, schedule: Q04DX003 (ip), vehicle: saline 100 % of control | endpoint: mean survival time, dose: 200.0 mg/kg/injection, schedule: Q04DX003 (ip), vehicle: saline 97 % of control | endpoint: mean survival time, dose: 400.0 mg/kg/injection, schedule: Q04DX003 (ip), vehicle: saline 96 % of control

CCC[CH2][Sn]1([CH2]CCC)[O]C2C(CO)OC(n3c(Br)c(C(N)=O)c4c(N)ncnc43)C2[O]1 (stereo not drawn)
inactive: endpoint: mean survival time, dose: 1.56 mg/kg/injection, schedule: Q01DX009 (ip), vehicle: distilled water + Tween-80 100 % of control | endpoint: mean survival time, dose: 3.13 mg/kg/injection, schedule: Q01DX009 (ip), vehicle: distilled water + Tween-80 107 % of control

C=CCOCC(O)CN1CCCCC1 (stereo not drawn)
inactive: endpoint: mean survival time, dose: 50.0 mg/kg/injection, schedule: Q01DX009 (ip), vehicle: saline 116 % of control | endpoint: mean survival time, dose: 100.0 mg/kg/injection, schedule: Q01DX009 (ip), vehicle: saline 96 % of control

C1CC2(CCC13CO3)CO2 (stereo not drawn)
inactive: [1] 91 % of control | [2] 91 % of control and 103 % of control | endpoint: mean survival time, dose: 100.0 mg/kg/injection, schedule: Q04DX002 (ip), vehicle: Klucel (hydroxypropylcellulose) (HPC) 102 % of control | [3] 91 % of control and 107 % of control | endpoint: mean survival time, dose: 200.0 mg/kg/injection, schedule: Q04DX002 (ip), vehicle: Klucel (hydroxypropylcellulose) (HPC) 112 % of control | [4] 100 % of control and 119 % of control | endpoint: mean survival time, dose: 400.0 mg/kg/injection, schedule: Q04DX002 (ip), vehicle: Klucel (hydroxypropylcellulose) (HPC) 119 % of control | endpoint: mean survival time, dose: 600.0 mg/kg/injection, schedule: Q04DX002 (ip), vehicle: Klucel (hydroxypropylcellulose) (HPC) 119 % of control | endpoint: median survival time, dose: 50.0 mg/kg/injection, schedule: Q04DX002 (ip), vehicle: saline with Tween-80 102 % of control | endpoint: median survival time, dose: 100.0 mg/kg/injection, schedule: Q04DX002 (ip), vehicle: saline with Tween-80 105 % of control | endpoint: median survival time, dose: 200.0 mg/kg/injection, schedule: Q04DX002 (ip), vehicle: saline with Tween-80 105 % of control | endpoint: median survival time, dose: 400.0 mg/kg/injection, schedule: Q04DX002 (ip), vehicle: saline with Tween-80 109 % of control | endpoint: median survival time, dose: 800.0 mg/kg/injection, schedule: Q04DX002 (ip), vehicle: saline with Tween-80 114 % of control

CN(C)c1ncnc(-c2ccncc2)n1
inactive: [3] 88 % of control | [4] 100 % of control

CCOc1ccc(NC(=O)C(C)O)cc1 (stereo not drawn)
inactive: endpoint: mean survival time, dose: 100.0 mg/kg/injection, schedule: Q01DX009 (ip), vehicle: saline with Tween-80 95 % of control | endpoint: mean survival time, dose: 100.0 mg/kg/injection, schedule: Q04DX003 (ip), vehicle: saline with Tween-80 103 % of control | endpoint: mean survival time, dose: 200.0 mg/kg/injection, schedule: Q01DX009 (ip), vehicle: saline with Tween-80 101 % of control | endpoint: mean survival time, dose: 200.0 mg/kg/injection, schedule: Q04DX003 (ip), vehicle: saline with Tween-80 97 % of control | endpoint: mean survival time, dose: 400.0 mg/kg/injection, schedule: Q01DX009 (ip), vehicle: saline with Tween-80 107 % of control | endpoint: mean survival time, dose: 400.0 mg/kg/injection, schedule: Q04DX003 (ip), vehicle: saline with Tween-80 97 % of control

CC1=NC2(CCCCC2)C[N+]1(Cc1ccccc1)Cc1ccccc1
inactive: endpoint: mean survival time, dose: 25.0 mg/kg/injection, schedule: Q01DX009 (ip), vehicle: acetone 101 % of control | endpoint: mean survival time, dose: 50.0 mg/kg/injection, schedule: Q01DX009 (ip), vehicle: acetone 97 % of control

CC#CCOCC(O)CO (stereo not drawn)
inactive: endpoint: mean survival time, dose: 25.0 mg/kg/injection, schedule: Q01DX009 (ip), vehicle: water 98 % of control | endpoint: mean survival time, dose: 50.0 mg/kg/injection, schedule: Q01DX009 (ip), vehicle: water 107 % of control | endpoint: mean survival time, dose: 100.0 mg/kg/injection, schedule: Q01DX009 (ip), vehicle: water 104 % of control | endpoint: mean survival time, dose: 200.0 mg/kg/injection, schedule: Q01DX009 (ip), vehicle: water 115 % of control
